Assay results taken from patent publication US8629293B2, “Process for the preparation of FE(III) chelates of N,N′-DI(2-hydroxybenzyl)-ethylenediamine-N,N′-diacetic acid and its derivatives” (Przedsiebiorstwo Produkcyjno-Consultingowe Adob SP. Z O.O. …, priority 2009, dated 2014).

Tests used:
[1] = system: soybean (Glycine max L.) var. Stine 0480; assay: Fertilising of soya in plant growth climatic chamber: SPAD index (leaves greenness); assay type: in vivo; details: for The SPAD index, 2nd level of foliage / The SPAD index, 3rd level of foliage: end of experiment
Method: (§1) The experiment was performed using the seeds of soybean (Glycine max L.) var. Stine 0480. A standard seed germination procedure was followed. Before starting the experiment, the seeds were thoroughly washed with water (30 minutes). The clean seeds were placed between two sheets of a cellulose paper soaked with water. The seeds germinated over two days in a climatic chamber at a temperature of 30° C. and a humidity of 60%, without access of light. After that time, the seedlings at a similar stage of development were placed on perforated trays floating over containers containing 10 L of the diluted nutrient solution for four days, followed by next three days using a solution containing micronutrients but without iron. Composition of the nutrient solution was: 1 mM Ca(NO3)2, 0.90 mM KNO3, 0.30 mM MgSO4, 0.10 mM KH2PO4, 2.5 μM MnSO4, 1.0 μM CuSO4, 10 μM ZnSO4, 1.0 μM NiCl2, 1.0 μM CoSO4, 115.5 μM Na2EDTA, 231 μM KOH, 35 μM NaCl, 10 μM H3BO3, 0.05 μM Na2MoO4 and 0.1 mM of N-(2-hydroxyethyl)piperazine-N′-(2-ethanesulfonic acid) sodium salt (HEPES). The pH value was adjusted to 7.5 using 1M KOH. 1-litre pots were filled with soil and sand in a volume ratio of 2:1. The test plants were transplanted into the thus-prepared pots, 3 plants per each pot. The experiment was carried out with adhering to the daily cycle of plant growth: 16 h of day time (30° C., 50% humidity) and 8 h of night time (25° C., 70% humidity).
(§2) Seven days after transplanting the plants into the pots, the symptoms of chlorosis were observed. The further part of the experiment was aimed at comparison of the effectiveness of performance of FeHBED with that of the commercially available FeEDDHA. For this purpose, the solutions of FeHBED and FeEDDHA were prepared, in which the iron isotope ^57Fe was used. The concentrations of ^57Fe in the doses were 0, 1.7, 3.4, 8.4, 16.8, 25.1 and 41.9 μmol of ^57Fe/kg of soil. Each dose was applied in duplicate. Additionally, a blank test (without iron) was performed for three pots.
The SPAD index (a measure of leaves greenness) was determined every two days during the whole experiment.

[2] = system: soybean (Glycine max L.) var. Stine 0480; assay: Fertilising of soya in plant growth climatic chamber: plant dry matter; assay type: in vivo
Method: as §1, §2
Table 1 summarises the results of dry matter of above-ground sprouts (leaves and stems) for the plants gathered after every application of iron solutions of various concentration for two samplings.

Row | SMILES | The SPAD index, 2nd level of foliage ([1]; 1.7 μmol of 57Fe/kg of soil) | The SPAD index, 3rd level of foliage ([1]; 1.7 μmol of 57Fe/kg of soil) | The SPAD index, 2nd level of foliage ([1]; 3.4 μmol of 57Fe/kg of soil) | The SPAD index, 3rd level of foliage ([1]; 3.4 μmol of 57Fe/kg of soil) | The SPAD index, 2nd level of foliage ([1]; 8.4 μmol of 57Fe/kg of soil) | The SPAD index, 3rd level of foliage ([1]; 8.4 μmol of 57Fe/kg of soil) | The SPAD index, 2nd level of foliage ([1]; 16.8 μmol of 57Fe/kg of soil) | The SPAD index, 3rd level of foliage ([1]; 16.8 μmol of 57Fe/kg of soil) | The SPAD index, 2nd level of foliage ([1]; 25.1 μmol of 57Fe/kg of soil) | The SPAD index, 3rd level of foliage ([1]; 25.1 μmol of 57Fe/kg of soil) | The SPAD index, 2nd level of foliage ([1]; 41.9 μmol of 57Fe/kg of soil) | The SPAD index, 3rd level of foliage ([1]; 41.9 μmol of 57Fe/kg of soil) | Root dry weight ([2]; dose 1.7 μmol 57Fe/kg of soil) | Sprout dry weight, 1 sampling ([2]; dose 1.7 μmol 57Fe/kg of soil) | Sprout dry weight, 2 sampling ([2]; dose 1.7 μmol 57Fe/kg of soil) | Root dry weight ([2]; dose 3.4 μmol 57Fe/kg of soil) | Sprout dry weight, 1 sampling ([2]; dose 3.4 μmol 57Fe/kg of soil) | Sprout dry weight, 2 sampling ([2]; dose 3.4 μmol 57Fe/kg of soil) | Root dry weight ([2]; dose 8.4 μmol 57Fe/kg of soil) | Sprout dry weight, 1 sampling ([2]; dose 8.4 μmol 57Fe/kg of soil) | other results
1 | O=C([O-])C(NCCNC(C(=O)[O-])c1ccccc1[O-])c1ccccc1[O-].[Fe+3] (centres unmarked) [o,oEDDHA, reference compound] | 37.92 | 43.18 | 34.58 | 40.00 | 31.67 | 36.82 | 32.92 | 40.46 | 37.08 | 37.73 | 38.75 | 44.55 | 0.44 g/3 plants | 0.88 g/plant | 2.08 g/plant | 0.51 g/3 plants | 0.79 g/plant | 2.92 g/plant | 0.49 g/3 plants | 0.87 g/plant | Sprout dry weight, 2 sampling ([2]; dose 8.4 μmol 57Fe/kg of soil): 2.03 g/plant; Root dry weight ([2]; dose 16.8 μmol 57Fe/kg of soil): 0.53 g/3 plants; Sprout dry weight, 1 sampling ([2]; dose 16.8 μmol 57Fe/kg of soil): 0.84 g/plant; Sprout dry weight, 2 sampling ([2]; dose 16.8 μmol 57Fe/kg of soil): 2.56 g/plant; Root dry weight ([2]; dose 25.1 μmol 57Fe/kg of soil): 0.59 g/3 plants; Sprout dry weight, 1 sampling ([2]; dose 25.1 μmol 57Fe/kg of soil): 0.81 g/plant; Sprout dry weight, 2 sampling ([2]; dose 25.1 μmol 57Fe/kg of soil): 2.73 g/plant; Root dry weight ([2]; dose 41.9 μmol 57Fe/kg of soil): 0.49 g/3 plants; Sprout dry weight, 1 sampling ([2]; dose 41.9 μmol 57Fe/kg of soil): 0.86 g/plant; Sprout dry weight, 2 sampling ([2]; dose 41.9 μmol 57Fe/kg of soil): 3.20 g/plant
2 | O=C(O)CN(CCN(CC(=O)O)Cc1ccccc1O)Cc1ccccc1O [HBED] | 29.58 | 34.09 | 28.75 | 35.91 | 42.50 | 43.18 | 27.92 | 37.73 | 27.92 | 37.73 | 29.17 | 43.64 | 0.33 g/3 plants | 0.73 g/plant | 2.20 g/plant | 0.53 g/3 plants | 0.79 g/plant | 2.83 g/plant | 0.56 g/3 plants | 0.91 g/plant | SPAD index compared with o,oEDDHA/57Fe3+ ([1]; both levels of foliage): No significant differences in the values of the SPAD index; Sprout dry weights compared with o,oEDDHA/57Fe3+ ([2]; conclusion from Table 1, all doses): no evident difference in the sprout dry weights; Sprout dry weight, 2 sampling ([2]; dose 8.4 μmol 57Fe/kg of soil): 2.62 g/plant; Root dry weight ([2]; dose 16.8 μmol 57Fe/kg of soil): 0.51 g/3 plants; Sprout dry weight, 1 sampling ([2]; dose 16.8 μmol 57Fe/kg of soil): 0.72 g/plant; Sprout dry weight, 2 sampling ([2]; dose 16.8 μmol 57Fe/kg of soil): 3.19 g/plant; Root dry weight ([2]; dose 25.1 μmol 57Fe/kg of soil): 0.43 g/3 plants; Sprout dry weight, 1 sampling ([2]; dose 25.1 μmol 57Fe/kg of soil): 0.92 g/plant; Sprout dry weight, 2 sampling ([2]; dose 25.1 μmol 57Fe/kg of soil): 2.66 g/plant; Root dry weight ([2]; dose 41.9 μmol 57Fe/kg of soil): 0.49 g/3 plants; Sprout dry weight, 1 sampling ([2]; dose 41.9 μmol 57Fe/kg of soil): 0.79 g/plant; Sprout dry weight, 2 sampling ([2]; dose 41.9 μmol 57Fe/kg of soil): 2.63 g/plant
